The values that follow come from patent US5856175A, “Device for detecting microorganisms” (priority 1996, dated 1999).

Read-outs that look alike come from different tables or passages of the source.

What all share (assay type): cell-based
In one experiment the test system is Escherichia coli 29194. The experiment in a line: Antimicrobial susceptibility pattern using silicone-emulsion CO2 sensors (Table 4). The text has this: (§1) Microtiter plates (96 flat bottom wells) containing 0.05% Xylenol blue silicone-emulsion sensors on the bottom were filled with 100 microliters of microbial growth medium containing no antibiotics (growth control wells) and nine different classes of antibiotics. Final concentrations of the antibiotics were achieved after addition of 100 microliters of inoculum (final inoculum of 5×10^7 CFU/ml) of the representative microorganisms. The concentrations of antibiotics used represent those used in determining if the test organism is sensitive, intermediate, or resistant to a particular antibiotic.
(§2) After inoculating the microtiter tray, it was sealed with a pressure sensitive plastic plate sealer and initial readings were taken with a reflectance reader. The plate was then placed into a 37° C. incubator. After four hours incubation, the plate was removed and final reflectance readings were taken.
(§3) The results in Table 4 show a pattern of growth, no growth, or intermediate growth of the four test organisms with the nine classes of antibiotics. This is indicative of the type of susceptibility of the organisms to the antibiotics. The organisms tested vary in their susceptibility pattern because of differences in their physiological makeup.

In experiment [1] the test system is Staphylococcus aureus 25923. Described as above.
Source text: as §1, §2, §3

In experiment [2] the test system is Streptococcus faecalis 29212. The experiment is described as above.
Source text: as §1, §2, §3

Experiment [3] concerns Pseudomonas aeruginosa 27853. The experiment is described as above.
Source text: as §1, §2, §3

Another experiment has as its system Proteus mirabilis 33583. Briefly: Pattern of inhibition using silicone-emulsion CO2 sensors (Table 3). Conditions: 4 h, 37° C., 5×10^7 CFU/ml.
Source text: (§4) Microbial identification using the described CO2 sensors can also be based on the principle of growth inhibition. This system differs from the classical biochemical identification systems, as identification is based on selective growth inhibition by inhibitory agents, such as dyes, antibiotics, and other substances. Once again, the production of CO2 is the measure of growth. The growth pattern produced in the presence of these inhibitory agents identifies the species of the test microorganism. The amount of growth is compared with a growth control well that contains no inhibitor. A profile is derived using a two-stage quadratic discriminate analysis based on the results derived from the battery of inhibitory agents.
(§5) Microtiter plates (96 flat bottom wells) containing 0.05% xylenol blue silicone-emulsion sensors were filled with 100 microliters of microbial growth medium containing no inhibitors (growth control wells) and eighteen different dyes, antibiotics, and other inhibitory substances. Final concentrations of the inhibitors were achieved after addition of 100 microliters of inoculum (final inoculum of 5×10^7 CFU/ml) of the representative microorganisms.
as §2

Experiment [4] deals with Alcaligenes odorans 33585. The description is as above. The settings on record: 4 h, 37° C., 5×10^7 CFU/ml.
Source text: as §4, §5, §2

The test system of another experiment is Escherichia coli 33582. The description is as above. The settings on record: 4 h, 37° C., 5×10^7 CFU/ml.
Source text: as §4, §5, §2

Experiment [5] relates to Pseudomonas aeruginosa 33584. The description is as above. Conditions: 4 h, 37° C., 5×10^7 CFU/ml.
Source text: as §4, §5, §2

[6] abbreviates: Staphylococcus aureus, 25923, 4 h, read-out: Percent growth as compared to a growth control without antibiotics.
The mark [7] stands for this setting: Enterococcus faecalis, 29212, 4 h, read-out: Percent growth as compared to a growth control without antibiotics.
Where [8] appears, read: Pseudomonas aeruginosa, 27853, 4 h, read-out: Percent growth as compared to a growth control without antibiotics.
[9] abbreviates: Escherichia coli, 29194, 4 h, read-out: Percent growth as compared to a growth control without antibiotics.
Setting [10] is: 0.2 units, 4 h, 37° C., 5×10^7 CFU/ml.

In the case of `O=C(N[C@H](CO)[C@H](O)c1ccc([N+](=O)[O-])cc1)C(Cl)Cl` [Chloramphenicol], the activity at 4 µg/mL was found to be 14% in the experiment with Escherichia coli 29194 (Escherichia coli, 29194, 4 mcg (per milliliter), 4 h, 37° C., 5×10^7 CFU/ml, read-out: Percent growth as compared to a growth control without antibiotics); 45% in experiment [1] (setting [6]); 19% in experiment [2] (setting [7]); 88% in experiment [3] (setting [8]).

As for `NC[C@H]1O[C@H](O[C@H]2[C@H](O)[C@@H](O[C@H]3O[C@H](CO)[C@@H](O)[C@H](N)[C@H]3O)[C@H](N)C[C@@H]2N)[C@H](O)[C@@H](O)[C@@H]1O` [Kanamycin], the “Percent growth as compared to a growth control without antibiotics” value in the experiment on Proteus mirabilis 33583 (5.4 mcg) stood at 44%; in experiment [4] (5.4 mcg), 95%; with Escherichia coli 33582 (5.4 mcg) it was 66%; in experiment [5] (5.4 mcg), 105%. Further, the activity at 22 µg/mL with Escherichia coli 29194 (setting [9]) was 91%; in experiment [1] (setting [6]) it was 13%; in experiment [2] (setting [7]) it was 95%; in experiment [3] (setting [8]), 72%.

As for `COc1cccc(OC)c1C(=O)N[C@@H]1C(=O)N2[C@@H]1SC(C)(C)[C@@H]2C(=O)O` [Methicillin], the activity at 5 µg/mL in the experiment on Escherichia coli 29194 (Escherichia coli, 29194, 5 mcg (per milliliter), 4 h, 37° C., 5×10^7 CFU/ml, read-out: Percent growth as compared to a growth control without antibiotics) stood at 111%; in experiment [1] (Staphylococcus aureus, 25923, 5 mcg (per milliliter), 4 h, 37° C., 5×10^7 CFU/ml, read-out: Percent growth as compared to a growth control without antibiotics), 16%; in experiment [2] (Enterococcus faecalis, 29212, 5 mcg (per milliliter), 4 h, 37° C., 5×10^7 CFU/ml, read-out: Percent growth as compared to a growth control without antibiotics), 116%; in experiment [3] (Pseudomonas aeruginosa, 27853, 5 mcg (per milliliter), 4 h, 37° C., 5×10^7 CFU/ml, read-out: Percent growth as compared to a growth control without antibiotics) it was 146%.

As for `CCn1cc(C(=O)O)c(=O)c2ccc(C)nc21` [Nalidixic acid], the activity at 15 µg/mL was 18% with Escherichia coli 29194 (setting [9]), 80% in experiment [1] (setting [6]), 116% in experiment [2] (setting [7]) and 109% in experiment [3] (setting [8]).

For the compound `O=C1CN(/N=C/c2ccc([N+](=O)[O-])o2)C(=O)N1` [Nitrofurantoin], the activity at 15 µg/mL was 14% in the experiment with Escherichia coli 29194 (Escherichia coli, 29194, 15 mcg (per milliliter), 4 h, 37° C., 5×10^7 CFU/ml, read-out: Percent growth as compared to a growth control without antibiotics); 33% in experiment [1] (Staphylococcus aureus, 25923, 15 mcg (per milliliter), 4 h, 37° C., 5×10^7 CFU/ml, read-out: Percent growth as compared to a growth control without antibiotics); 110% in experiment [2] (Enterococcus faecalis, 29212, 15 mcg (per milliliter), 4 h, 37° C., 5×10^7 CFU/ml, read-out: Percent growth as compared to a growth control without antibiotics); 112% in experiment [3] (Pseudomonas aeruginosa, 27853, 15 mcg (per milliliter), 4 h, 37° C., 5×10^7 CFU/ml, read-out: Percent growth as compared to a growth control without antibiotics).

In the case of `CC1(C)S[C@@H]2[C@H](NC(=O)Cc3ccccc3)C(=O)N2[C@H]1C(=O)O` [Penicillin G], the “Percent growth as compared to a growth control without antibiotics” value stood at 103% in the experiment on Escherichia coli 29194 (setting [10]), 45% in experiment [1] (setting [10]), 108% in experiment [2] (setting [10]) and 149% in experiment [3] (setting [10]).

Take `[N-]=[N+]=[N-]` [Sodium azide]: the “Percent growth as compared to a growth control without antibiotics” value in the experiment with Proteus mirabilis 33583 (75 mcg) turned out to be 35%; in experiment [4] (75 mcg) it was 47%; in the experiment with Escherichia coli 33582 (75 mcg) it was 6%; in experiment [5] (75 mcg), 47%.

`CN(C)C1C(=O)C(C(N)=O)=C(O)C2(O)C(=O)C3=C(O)c4c(O)cccc4C(C)(O)C3CC12` (centres unmarked) [Tetracycline]: the activity at 0.5 µg/mL in the experiment with Escherichia coli 29194 (setting [9]) came out at 76%; in experiment [1] (setting [6]), 15%; in experiment [2] (setting [7]), 109%; in experiment [3] (setting [8]) it was 120%.

Take `CC(=O)[O-].[Tl+]` [Thallous acetate]: the “Percent growth as compared to a growth control without antibiotics” value with Proteus mirabilis 33583 (150 mcg) is 68%; in experiment [4] (150 mcg), 47%; with Escherichia coli 33582 (150 mcg) it was 40%; in experiment [5] (150 mcg) it was 34%.

For the compound `CN[C@H](CC(C)C)C(=O)N[C@H]1C(=O)N[C@@H](CC(N)=O)C(=O)N[C@H]2C(=O)N[C@H]3C(=O)N[C@H](C(=O)N[C@H](C(=O)O)c4cc(O)cc(O)c4-c4cc3ccc4O)[C@H](O)c3ccc(c(Cl)c3)Oc3cc2cc(c3O[C@@H]2O[C@H](CO)[C@@H](O)[C@H](O)[C@H]2O[C@H]2C[C@](C)(N)[C@H](O)[C@H](C)O2)Oc2ccc(cc2Cl)[C@H]1O` [Vancomycin], the activity at 10 µg/mL in the experiment with Escherichia coli 29194 (setting [9]) was found to be 94%; in experiment [1] (setting [6]), 22%; in experiment [2] (setting [7]) it was 15%; in experiment [3] (setting [8]) it was 106%.

For Acriflavine, the “Percent growth as compared to a growth control without antibiotics” value is 68% in the experiment on Proteus mirabilis 33583 (30 mcg), 55% in experiment [4] (30 mcg), 5% in the experiment with Escherichia coli 33582 (30 mcg) and 84% in experiment [5] (30 mcg).

For the compound Brilliant green, the “Percent growth as compared to a growth control without antibiotics” value in the experiment on Proteus mirabilis 33583 (3 mcg) amounted to 84%; in experiment [4] (3 mcg) it was 37%; with Escherichia coli 33582 (3 mcg), 104%; in experiment [5] (3 mcg), 101%.

Consider Colistin, for which the “Percent growth as compared to a growth control without antibiotics” value in the experiment on Proteus mirabilis 33583 (13 mcg) is recorded as 114%; in experiment [4] (13 mcg), -44%; in the experiment on Escherichia coli 33582 (13 mcg) it was 3%; in experiment [5] (13 mcg), 34%.
